Reference: patent US7405228B2, “Antibacterial cyano-(substituted)-methylenepiperidinophenyl oxazolidinones targeting multiple ribonucleoprotein sites” (Wockhardt Limited, priority 2002, dated 2008)
Converted amounts (≈) assume the structure as drawn.

What was measured:
MRSA 032 = assay: MIC determination, linezolid sensitive MRSA 032 (MRSA-32); format: cell-based; settings: Staphylococcus aureus, read-out: MIC MRSA 32
Procedure: (§1) Infecting doses of organisms given by intraperitoneal route in 5% hog gastric mucin were 10^3-10^4 CFU (colony forming units)/animal for SPN 6303 and 10^8 CFU/animal for MRSA-32. In case of MRSA-32, Linezolid was administered by oral route, 1 and 4 h post infection, BID (twice a day) for 1 day and for SPN 6303 BID for 2 days. […] MICs of Methicillin Resistant Staphylococcus aureus-32 Linezolid resistant (MRSA-32 LNZR), S. pneumoniae 744 Linezolid resistant (SPN 744 LNZR) and parent Linezolid sensitive strains MRSA-32 and SPN 6303 were determined for Linezolid by NCCLS agar dilution method.
(§2) Cultures were further diluted 1:10 in Mueller Hinton broth. Using Denley's mutipoint inoculator, 10^4 cells were deposited on Mueller Hinton agar (Difco) containing range of 2 fold dilutions of test compounds. […] MIC is defined as minimum drug concentration that inhibits test organisms. For determining MIC of test compounds against Streptococcus pneumoniae, Mueller Hinton agar containing 5% sheep blood was employed.

S. aureus MRSA-32 LNZR = assay: MIC determination, linezolid resistant S. aureus MRSA-32 LNZR; format: cell-based; settings: Staphylococcus aureus, 24 h, read-out: MIC MRSA 32 LNZR
Procedure: as §1, §2

SPN 744 LNZR = assay: MIC determination, linezolid resistant SPN 744 LNZR; format: cell-based; settings: Streptococcus pneumoniae, read-out: MIC SPN744 LNZR
Procedure: as §1, §2

E. faecium 367 LNZR = assay: MIC determination, linezolid resistant E. faecium 367 LNZR; format: cell-based; settings: Enterococcus faecium, read-out: MIC E. faecium 367 LNZR
Procedure: E. faecium ATCC 19434 strain at a cell density of 10^6/ml was inoculated in Mueller Hinton broth medium containing Linezolid at a concentration of 5 and 7.5 mcg/ml. The stationary culture was incubated at 37° C. and inspected at every 24 hours to assess the formation of turbidity due to the onset of bacterial growth. […] A 50 microliter sample of turbid flask was plated on Mueller Hinton agar medium incorporated with linezolid at 7.5 mcg/ml. The agar plates were incubated for 48 hours at 37° C. for the formation of discrete colonies of linezolid-resistant strain of E. faecium (E. faecium 367 LNZR). MICs of resistant mutant E. faecium 367 LNZR and parent strain E. faecium ATCC 19434 were determined for linezolid by NCCLS method.
as §2

SPN 49619 = assay: MIC determination, linezolid sensitive SPN 49619; format: cell-based; settings: Streptococcus pneumoniae; linezolid sensitive strain, Table 3

melting point [°C]	SMILES	MIC (MRSA 032) [µg/mL]	MIC (S. aureus MRSA-32 LNZR) [µg/mL]	MIC (SPN 744 LNZR) [µg/mL]	MIC (E. faecium 367 LNZR) [µg/mL]	MIC (SPN 49619) [µg/mL]
–	CC(=O)NC[C@H]1CN(c2ccc(N3CC/C(=C\C#N)C(F)C3)c(F)c2)C(=O)O1 (stereo partly drawn) [56 (E), E-(S)-N-{3-[4-(4-cyanomethylidene-3-fluoropiperidin-1-yl)-3-fluorophenyl]-2-oxo-oxazolidin-5-ylmethyl}-acetamide]	0.8 (≈ 2.05 µM)	12.5 (≈ 32 µM)	6.25 (≈ 16 µM)	6.25 (≈ 16 µM)	0.8 (≈ 2.05 µM)
–	CC(=O)NC[C@H]1CN(c2ccc(N3CC/C(=C/C#N)C(F)C3)c(F)c2)C(=O)O1 (stereo partly drawn) [56 (Z), Z-(S)-N-{3-[4-(4-cyanomethylidene-3-fluoropiperidin-1-yl)-3-fluorophenyl]-2-oxo-oxazolidin-5-ylmethyl}-acetamide]	0.8 (≈ 2.05 µM)	25 (≈ 64 µM)	12.5 (≈ 32 µM)	6.25 (≈ 16 µM)	0.8 (≈ 2.05 µM)
–	CC(=S)NC[C@H]1CN(c2ccc(N3CCC(=CC#N)CC3)c(F)c2)C(=O)O1 [Example 45, (S)-N-{3-[4-(4-cyanomethylidene-piperidin-1-yl)-3-fluorophenyl]-2-oxo-oxazolidin-5-ylmethyl}-thioacetamide]	0.2 (≈ 0.515 µM)	3.12 (≈ 8.03 µM)	3.12 (≈ 8.03 µM)	–	0.2 (≈ 0.515 µM)
–	N#C/C=C1\CCN(c2ccc(N3C[C@H](CNC(=O)C(F)F)OC3=O)cc2F)CC1F (stereo partly drawn) [Example 57, (S)-N-{3-[4-(4-cyanomethylidene-3-fluoropiperidin-1-yl)-3-fluorophenyl]-2-oxo-oxazolidin-5-ylmethyl}-difluoroacetamide]	–	12.5 (≈ 29.3 µM)	6.25 (≈ 14.7 µM)	6.25 (≈ 14.7 µM)	–
–	CC(=S)NC[C@H]1CN(c2ccc(N3CC/C(=C\C#N)C(F)C3)c(F)c2)C(=O)O1 (stereo partly drawn) [Example 60, (S)-N-{3-[4-(4-cyanomethylidene-3-fluoropiperidin-1-yl)-3-fluorophenyl]-2-oxo-oxazolidin-5-ylmethyl}-thioacetamide]	0.25 (≈ 0.615 µM)	6.25 (≈ 15.4 µM)	3.12 (≈ 7.68 µM)	1.56 (≈ 3.84 µM)	0.1 (≈ 0.246 µM)
–	COC(=S)NC[C@H]1CN(c2ccc(N3CC/C(=C\C#N)C(C)C3)c(F)c2)C(=O)O1 (stereo partly drawn) [Example 67, (S)-N-{3-[4-(4-cyanomethylidene-3-methylpiperidin-1-yl)-3-fluorophenyl]-2-oxo-oxazolidin-5-ylmethyl}-methylthiocarbamate]	0.8 (≈ 1.91 µM)	12.5 (≈ 29.9 µM)	6.25 (≈ 14.9 µM)	3.12 (≈ 7.46 µM)	0.4 (≈ 0.956 µM)
–	CC1CN(c2ccc(N3C[C@H](CNC(N)=S)OC3=O)cc2F)CC/C1=C\C#N (stereo partly drawn) [Example 68, (S)-N-{3-[4-(4-cyanomethylidene-3-methylpiperidin-1-yl)-3-fluorophenyl]-2-oxo-oxazolidin-5-ylmethyl}-thiocarbamide]	0.4 (≈ 0.991 µM)	6.25 (≈ 15.5 µM)	3.12 (≈ 7.73 µM)	3.12 (≈ 7.73 µM)	0.4 (≈ 0.991 µM)
–	CC(C#N)=C1CCN(c2ccc(N3C[C@H](CNC(=O)C(F)F)OC3=O)cc2F)CC1 [Example 77, (S)-N-{3-[4-(4-(1-cyanoethylidene)-piperidin-1-yl)-3-fluorophenyl]-2-oxo-oxazolidin-5-ylmethyl}-difluoroacetamide]	–	12.5 (≈ 29.6 µM)	6.25 (≈ 14.8 µM)	6.25 (≈ 14.8 µM)	–
–	CC(C#N)=C1CCN(c2ccc(N3C[C@H](CNC(=O)C(Cl)Cl)OC3=O)cc2F)CC1 [Example 79, (S)-N-{3-[4-(4-(1-cyanoethylidene)-piperidin-1-yl)-3-fluorophenyl]-2-oxo-oxazolidin-5-ylmethyl}-dichloroacetamide]	0.8 (≈ 1.76 µM)	–	–	–	0.8 (≈ 1.76 µM)
–	CC(=S)NC[C@H]1CN(c2ccc(N3CCC(=C(C)C#N)CC3)c(F)c2)C(=O)O1 [Example 84, (S)-N-{3-[4-(4-(1-cyanoethylidene)-piperidin-1-yl)-3-fluorophenyl]-2-oxo-oxazolidin-5-ylmethyl}-thioacetamide]	0.4 (≈ 0.994 µM)	1.56 (≈ 3.88 µM)	1.56 (≈ 3.88 µM)	1.56 (≈ 3.88 µM)	0.2 (≈ 0.497 µM)
–	CCC(C#N)=C1CCN(c2ccc(N3C[C@H](CNC(C)=O)OC3=O)cc2F)CC1 [Example 89, (S)-N-{3-[4-(4-(1-cyanopropylidene)-piperidin-1-yl)-3-fluorophenyl]-2-oxo-oxazolidin-5-ylmethyl}-acetamide]	–	25 (≈ 62.4 µM)	12.5 (≈ 31.2 µM)	6.25 (≈ 15.6 µM)	–
–	CC(=O)NC[C@H]1CN(c2ccc(N3CCC(=C(C#N)c4cccs4)CC3)c(F)c2)C(=O)O1 [Example 105, (S)-N-{3-[4-(4-(1-cyano-1-(thiophen-2-yl)-methylidene)-piperidin-1-yl)-3-fluorophenyl]-2-oxo-oxazolidin-5-ylmethyl}-acetamide]	0.8 (≈ 1.76 µM)	–	–	–	0.8 (≈ 1.76 µM)
–	CC(=S)NC[C@H]1CN(c2ccc(N3CCC(=C(C#N)c4ccccn4)CC3)c(F)c2)C(=O)O1 [Example 118, (S)-N-{3-[4-(4-(1-cyano-1-(pyridin-2-yl)-methylidene)-piperidin-1-yl)-3-fluorophen]-2-oxo-oxazolidin-5-ylmethyl}-thioacetamide]	0.8 (≈ 1.72 µM)	–	–	–	0.4 (≈ 0.859 µM)
–	CC(=S)NC[C@H]1CN(c2ccc(N3CCC(=C(C#N)C#N)CC3)c(F)c2)C(=O)O1 [Example 119, (S)-N-{3-[4-(4-(1,1-dicyano-methylidene)-piperidin-1-yl)-3-fluorophenyl]-2-oxo-oxazolidin-5-ylmethyl}-thioacetamide]	0.4 (≈ 0.967 µM)	–	–	–	0.8 (≈ 1.93 µM)
–	CC(=S)NC[C@H]1CN(c2ccc(N3CCC(=C(C#N)C(=S)N4CCOCC4)CC3)c(F)c2)C(=O)O1 [Example 121, (S)-N-{3-[4-(4-(1-cyano-1-(morpholin-1-yl-thiocarbonyl)-methylidene)-piperidin-1-yl)-3-fluorophenyl]-2-oxo-oxazolidin-5-ylmethyl}-thioacetamide]	0.4 (≈ 0.773 µM)	6.25 (≈ 12.1 µM)	1.56 (≈ 3.01 µM)	–	0.2 (≈ 0.386 µM)
108 to 110	CS(=O)(=O)OC[C@H]1CN(c2ccc(N3CCC(C(C#N)C(=O)O)CC3)c(F)c2)C(=O)O1 (stereo partly drawn) [Example 155, (R)-{3-[4-(4-(1-Cyano-1-hydroxycarbonyl)-methylpiperidin-1-yl)-3-fluorophenyl]-2-oxo-oxazolidin-5-ylmethyl}-methanesulphonate]	–	–	–	–	–
64 to 66	CS(=O)(=O)OC[C@H]1CN(c2ccc(N3CCC(C(C#N)c4nccs4)CC3)c(F)c2)C(=O)O1 (stereo partly drawn) [Example 157, (R)-{3-[4-(4-(1-cyano-1-(1,3-thiazol-2-yl))-methylpiperidin-1-yl)-3-fluorophenyl]-2-oxo-oxazolidin-5-ylmethyl}-methanesulphonate]	–	–	–	–	–
220 to 222	CS(=O)(=O)OC[C@H]1CN(c2ccc(N3CCC(C(C#N)C(N)=O)CC3)c(F)c2)C(=O)O1 (stereo partly drawn) [Example 158, (R)-{3-[4-(4-(1-cyano-1-carboxamido)-methylpiperidin-1-yl)-3-fluorophenyl]-2-oxo-oxazolidin-5-ylmethyl}-methanesulphonate]	–	–	–	–	–
149 to 150	CC(=O)NC[C@H]1CN(c2ccc(N3CC=C(CC#N)C(C)C3)c(F)c2)C(=O)O1 (stereo partly drawn) [Example 161, (S)-N-{3-[4-(4-cyanomethyl-3-methyl-4,5-dehydropiperidin-1-yl)-3-fluorophenyl]-2-oxo-oxazolidin-5-ylmethyl}-acetamide]	–	–	–	–	–
146 to 148	CC(C)COC(=O)NC[C@H]1CN(c2ccc(N3CC=C(CC#N)C(F)C3)c(F)c2)C(=O)O1 (stereo partly drawn) [Example 163, (S)-N-{3-[4-(4-cyanomethyl-3-fluoro-4,5-dehydropiperidin-1-yl)-3-fluorophenyl]-2-oxo-oxazolidin-5-ylmethyl}-isobutylcarbamate]	–	–	–	–	–
